Here are results for 5 compounds from publication PMC4932617 (Meta Gene, 2016).

SMILES strings stand for the structures.

One data set concerns intra-gastric pH. The data set can be described thus: Intra-gastric pH monitoring. As to conditions: for pH on Day 6: n=1; for Difference in intra-gastric pH between baseline and day 6: rapid and ultra-rapid metabolizers (CYP2C19*17 carriers). Type of data set: in vivo, human.
The conditions of data set [1]: higher in poor than in extensive metabolizers; ref Klotz, 2006; cited from earlier work.

Regarding `COc1ccc2nc([S@@+]([O-])Cc3ncc(C)c(OC)c3C)[nH]c2c1` [Esomeprazole], the “pH on Day 6” value with intra-gastric pH (normal metabolizer, esomeprazole 40 mg/day for 5 days, baseline pH 0.40) was 3.40; in the data set with intra-gastric pH (rapid metabolizer, esomeprazole 40 mg/day for 5 days, baseline pH 1.25), 1.20. Also, in the data set with intra-gastric pH (40 mg/day for 5 days), the “Difference in intra-gastric pH between baseline and day 6” value is “noteworthy differences could not be observed”. For `COc1ccnc(C[S+]([O-])c2nc3ccc(OC(F)F)cc3[nH]2)c1OC` (stereo not drawn) [Pantoprazole], in the data set on intra-gastric pH (normal metabolizer, pantoprazole 40 mg/day for 5 days, baseline pH 1.50), the “pH on Day 6” value came out at 4.10. In the data set with intra-gastric pH (poor and intermediate metabolizers, 40 mg/day for 5 days), the “Gastric acid suppression compared to esomeprazole” value is given as “improved gastric acid suppression”. Besides, the “Difference in intra-gastric pH between baseline and day 6” value in the data set with intra-gastric pH (40 mg/day for 5 days) is reported as “noteworthy differences could not be observed”.

In the case of `COc1ccc2[nH]c([S+]([O-])Cc3ncc(C)c(OC)c3C)nc2c1` (stereo not drawn) [omeprazole], the “AUC in poor metabolizers relative to extensive metabolizers” value in data set [1] was 7.5 fold. For `COCCCOc1ccnc(C[S+]([O-])c2nc3ccccc3[nH]2)c1C` (stereo not drawn) [rabeprazole], in data set [1], the “AUC in poor metabolizers relative to extensive metabolizers” value was 4 fold. On to `Cc1c(OCC(F)(F)F)ccnc1C[S+]([O-])c1nc2ccccc2[nH]1` (stereo not drawn) [lansoprazole], for which the “AUC in poor metabolizers relative to extensive metabolizers” value in data set [1] is listed as 4.5 fold.
